Here are results for 17 compounds from patent publication US10195185B2, “3-(1H-imidazo[4,5-C]pyridin-2-yl)-1H-pyrazolo[4,3-B]pyridines and therapeutic uses thereof” (Samumed, LLC, priority 2015, dated 2019).

Experiment [1] concerns Wnt activity (Wnt-responsive human Sp5 promoter, TCF/LEF binding sites) in SW480 colon carcinoma cells. Nature of the experiment: Wnt activity screening assay: Sp5-Luc luciferase reporter gene in SW480 cells. Particulars: for EC50: 10-point dose-response from 10 μM, incubated overnight; for inhibition at 10 µM: given for EC50 of >10 μM, read-out: percent inhibition at 10 μM. Type of experiment: cell-based. The procedure, abridged: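 Luminescence read-out (BrightGlo) from stable Sp5-Luc SW480 cells, normalized to DMSO-only wells. Cells were treated overnight at 37° C in 1% FBS medium across a 1:3, 10-point series starting at 10 μM. EC50 from variable-slope four-parameter regression; percent inhibition at 10 μM given where EC50 >10 μM.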

Experiment [2] concerns primary human mesenchymal stem cells (hMSCs). Nature of the experiment: Induction of chondrogenesis in hMSCs (nodule area, Rhodamine B / Nile Red). Particulars: TGF-β3 as positive control; for Emax: read-out: Max. Activity as % TGF-β3 activity; for EC50: concentration required to induce 50% levels of chondrogenesis, read-out: Conc (nM) of 50% TGF-β3 activity. Type of experiment: cell-based. The protocol:
Representative compounds were screened using primary human mesenchymal stem cells (hMSCs) to determine their ability to induce chondrogenesis (process by which cartilage is developed).
Primary human mesenchymal stem cells (hMSCs) were purchased from Lonza (Walkersville, Md.) and expanded in Mesenchymal Stem Cell Growth Media (Lonza). Cells between passage 3 and 6 were used for the experiments.
Each compound was dissolved in DMSO as a 10 mM stock and used to prepare compound source plates. For the 96 well assay, serial dilution (1:3, 6-point dose-response curves from 2700 nM to 10 nM) and compound transfer was performed using the ECHO 550 (Labcyte, Sunnyvale, Calif.) into 96-well clear bottom assay plates (Greiner Bio-One) with appropriate DMSO backfill for a final DMSO concentration of 0.03%. hMSCs were plated at 20,000 cells/well in 250 μL/well Incomplete Chondrogenic Induction Medium (Lonza; DMEM, dexamethasone, ascorbate, insulin-transferrin-selenium [ITS supplement], gentamycin-amphotericin [GA-1000], sodium pyruvate, proline and L-glutamine). TGF-β3 (10 ng/mL) was used as a positive control for differentiation while negative control wells were treated with 75 nL DMSO for normalization and calculating EC50 values. For the 384 well assay, serial dilution (1:3, 8-point dose-response curves from 5000 nM to 2.2 nM) and compound transfer was performed using the ECHO 550 (Labcyte, Sunnyvale, Calif.) into 384-well clear bottom assay plates (Greiner Bio-One) with appropriate DMSO backfill for a final DMSO concentration of 0.03%. hMSCs were plated at 8,000 cells/well in 80 μL/well Incomplete Chondrogenic Induction Medium (Lonza; DMEM, dexamethasone, ascorbate, insulin-transferrin-selenium [ITS supplement], gentamycin-amphotericin [GA-1000], sodium pyruvate, proline and L-glutamine). TGF-β3 (10 ng/mL) was used as a positive control for differentiation while negative control wells were treated with 25 nL DMSO for normalization and calculating EC50 values. Cells were incubated at 37° C. and 5% CO2 for 6 days. To image chondrogenic nodules, the cells were fixed using 4% formaldehyde (Electron Microscopy Sciences), and stained with 2 μg/mL Rhodamine B (Sigma-Aldrich) and 20 μM Nile Red (Sigma-Aldrich) [Johnson K., et. al, A Stem Cell-Based Approach to Cartilage Repair, Science, (2012), 336(6082), 717-721]. The nodules imaged (25 images per well for 96 well plates and 9 images per well for 384 well plates at 10× magnification) by excitation at 531 nm and emission at 625 nm and quantified using the CellInsight CX5 (Thermo Scientific). Area of nodules in each well was normalized to the average of 3 DMSO treated wells on the same plate using Excel (Microsoft Inc.). The normalized averages (fold change over DMSO) of 2 or 3 replicate wells for each compound concentration were calculated. Due to solubility limitations of some of the compounds, curve fitting was incomplete leading to inaccurate EC50 determinations.
Using TGF-β3 as a positive control, the concentration of representative compounds required to induce 50% levels of chondrogenesis is reported. In addition, the maximum activity of each compound and the respective dose that each compound reached maximum chondrogenesis activity is reported.

`Clc1ccc(-c2nccc3[nH]c(-c4n[nH]c5ccc(-c6cncc(CN7CCCC7)c6)nc45)nc23)s1` [Compound 1049, 3-(4-(5-Chlorothiophen-2-yl)-1H-imidazo[4,5-c]pyridin-2-yl)-5-(5-(pyrrolidin-1-ylmethyl)pyridin-3-yl)-1H-pyrazolo [4,3-b]pyridine] gave an EC50 in experiment [1] of 1580 nM. In experiment [2], the Emax was found to be 59% and the EC50 stood at 10 nM.
In general, inhibition refers to how much of the control response was suppressed. On to `c1cncc(-c2ccc3[nH]nc(-c4nc5cnccc5[nH]4)c3n2)c1` [Compound 256, 3-(1H-Imidazo[4,5-c]pyridin-2-yl)-5-(pyridin-3-yl)-1H-pyrazolo[4,3-b]pyridine], for which, in experiment [1], the EC50 is over 10000 nM and the inhibition at 10 µM is 21.9%. In experiment [2], the Emax is 55% and the EC50 is 30 nM.
The compound `CCNCc1cncc(-c2ccc3[nH]nc(-c4nc5c(-c6ccoc6)nccc5[nH]4)c3n2)c1` [Compound 314, N-((5-(3-(4-(Furan-3-yl)-1H-imidazo[4,5-c]pyridin-2-yl)-1H-pyrazolo[4,3-b]pyridin-5-yl)pyridin-3-yl)methyl)ethanamine] returned an EC50 in experiment [1] of 3470 nM. Also, in experiment [2], the Emax is 33%.
With `COc1cccc(-c2nccc3[nH]c(-c4n[nH]c5ccc(-c6cncc(NC(=O)Cc7ccccc7)c6)nc45)nc23)c1` [Compound 1000, N-(5-(3-(4-(3-methoxyphenyl)-1H-imidazo[4,5-c]pyridin-2-yl)-1H-pyrazolo [4,3-b]pyridin-5-yl)pyridin-3-yl)-2-phenylacetamide], in experiment [1], the EC50 is over 10000 nM and the inhibition at 10 µM amounted to 31.1%. Moreover, the Emax in experiment [2] turned out to be 41%.
With `O=C(Cc1ccccc1)Nc1cncc(-c2ccc3[nH]nc(-c4nc5c(-c6ccncc6)nccc5[nH]4)c3n2)c1` [Compound 122, 2-phenyl-N-(5-(3-(4-(pyridin-4-yl)-1H-imidazo[4,5-c]pyridin-2-yl)-1H-pyrazolo[4,3-b]pyridin-5-yl)pyridin-3-yl)acetamide], in experiment [1], the EC50 was over 10000 nM and the inhibition at 10 µM came out at 1%. In experiment [2], the Emax is 74% and the EC50 turned out to be 30 nM.
As for `CN1CCN(c2nccc3[nH]c(-c4n[nH]c5ccc(-c6cncc(N)c6)nc45)nc23)CC1` [Compound 227, 5-(3-(4-(4-Methylpiperazin-1-yl)-1H-imidazo[4,5-c]pyridin-2-yl)-1H-pyrazolo[4,3-b]pyridin-5-yl)pyridin-3-amine], in experiment [1], the EC50 is over 10000 nM and the inhibition at 10 µM was determined as 15.3%. Further, in experiment [2], the Emax turned out to be 135% and the EC50 came to 100 nM.
Take `Cc1cn(-c2nccc3[nH]c(-c4n[nH]c5ccc(-c6cncc(CN7CCCC7)c6)nc45)nc23)cn1` [Compound 210, 3-(4-(4-Methyl-1H-imidazol-1-yl)-1H-imidazo[4,5-c]pyridin-2-yl)-5-(5-(pyrrolidin-1-ylmethyl)pyridin-3-yl)-1H-pyrazolo [4,3-b]pyridine]: in experiment [1], the EC50 was over 10000 nM and the inhibition at 10 µM was determined as 5.5%. Moreover, in experiment [2], the Emax came out at 50%.
For `CN(C)c1cncc(-c2ccc3[nH]nc(-c4nc5c(N6CCCCC6)nccc5[nH]4)c3n2)c1` [Compound 175, N,N-Dimethyl-5-(3-(4-(piperidin-1-yl)-1H-imidazo[4,5-c]pyridin-2-yl)-1H-pyrazolo [4,3-b]pyridin-5-yl)pyridin-3-amine], the EC50 in experiment [1] was 3890 nM. Further, in experiment [2], the Emax stood at 48%.
Consider `O=C(Nc1cncc(-c2ccc3[nH]nc(-c4nc5c(-c6ccc(Cl)s6)nccc5[nH]4)c3n2)c1)C1CCC1` [Compound 1056, N-(5-(3-(4-(5-Chlorothiophen-2-yl)-1H-imidazo[4,5-c]pyridin-2-yl)-1H-pyrazolo[4,3-b]pyridin-5-yl)pyridin-3-yl)cyclobutanecarboxamide], for which the EC50 in experiment [1] came out at 897 nM. In experiment [2], the Emax worked out at 60% and the EC50 is 30 nM.
Turning to `CCCC(=O)Nc1cncc(-c2ccc3[nH]nc(-c4nc5c(-c6ccncc6)nccc5[nH]4)c3n2)c1` [Compound 129, N-(5-(3-(4-(Pyridin-4-yl)-1H-imidazo[4,5-c]pyridin-2-yl)-1H-pyrazolo[4,3-b]pyridin-5-yl)pyridin-3-yl)butyramide], in experiment [1], the EC50 is over 10000 nM and the inhibition at 10 µM amounted to 2.2%. Moreover, in experiment [2], the Emax came out at 70% and the EC50 came out at 300 nM.
Turning to `CC(C)(C)C(=O)Nc1cncc(-c2ccc3[nH]nc(-c4nc5c(-c6ccc(F)cc6)nccc5[nH]4)c3n2)c1` [Compound 36, N-(5-(3-(4-(4-Fluorophenyl)-1H-imidazo[4,5-c]pyridin-2-yl)-1H-pyrazolo [4,3-b]pyridin-5-yl)pyridin-3-yl)pivalamide], the EC50 in experiment [1] is 3350 nM; in experiment [2], 10 nM. The Emax in experiment [2] came out at 56%.
Turning to `CC(C)C(=O)Nc1cncc(-c2ccc3[nH]nc(-c4nc5c(N6CCN(C)CC6)nccc5[nH]4)c3n2)c1` [Compound 233, N-(5-(3-(4-(4-Methylpiperazin-1-yl)-1H-imidazo[4,5-c]pyridin-2-yl)-1H-pyrazolo[4,3-b]pyridin-5-yl)pyridin-3-yl)isobutyramide], in experiment [1], the EC50 is over 10000 nM and the inhibition at 10 µM is 6.4%. Further, in experiment [2], the Emax was found to be 64% and the EC50 is 900 nM.
On to `CCC(=O)Nc1cncc(-c2ccc3[nH]nc(-c4nc5c(-c6cccc(F)c6)nccc5[nH]4)c3n2)c1` [Compound 1, N-(5-(3-(4-(3-Fluorophenyl)-1H-imidazo[4,5-c]pyridin-2-yl)-1H-pyrazolo [4,3-b]pyridin-5-yl)pyridin-3-yl)propionamide], for which, in experiment [1], the EC50 is over 10000 nM and the inhibition at 10 µM amounted to 29.8%. Further, in experiment [2], the Emax is 95% and the EC50 came to 5000 nM.
`CCNCc1cncc(-c2ccc3[nH]nc(-c4nc5c(-c6ccccn6)nccc5[nH]4)c3n2)c1` [Compound 146, N-((5-(3-(4-(Pyridin-2-yl)-1H-imidazo[4,5-c]pyridin-2-yl)-1H-pyrazolo[4,3-b]pyridin-5-yl)pyridin-3-yl)methyl)ethanamine]: in experiment [1], the EC50 is over 10000 nM and the inhibition at 10 µM was determined as 35.5%. In experiment [2], the Emax is 28%.
For `Cc1ccncc1-c1ccc2[nH]nc(-c3nc4c(-c5ccncc5)nccc4[nH]3)c2n1` [Compound 117, 5-(4-Methylpyridin-3-yl)-3-(4-(pyridin-4-yl)-1H-imidazo[4,5-c]pyridin-2-yl)-1H-pyrazolo[4,3-b]pyridine], in experiment [1], the EC50 is over 10000 nM and the inhibition at 10 µM came to 28%. Further, in experiment [2], the Emax stood at 53% and the EC50 came out at 2700 nM.
`CC(C)(C)CC(=O)Nc1cncc(-c2ccc3[nH]nc(-c4nc5cnccc5[nH]4)c3n2)c1` [Compound 268, N-(5-(3-(1H-Imidazo[4,5-c]pyridin-2-yl)-1H-pyrazolo[4,3-b]pyridin-5-yl)pyridin-3-yl)-3,3-dimethylbutanamide]: in experiment [1], the EC50 is over 10000 nM and the inhibition at 10 µM turned out to be 9.5%. In experiment [2], the Emax came to 54% and the EC50 was determined as 10 nM.
Take `Cc1cn(-c2nccc3[nH]c(-c4n[nH]c5ccc(-c6cncc(NC(=O)C(C)(C)C)c6)nc45)nc23)cn1` [Compound 204, N-(5-(3-(4-(4-Methyl-1H-imidazol-1-yl)-1H-imidazo[4,5-c]pyridin-2-yl)-1H-pyrazolo[4,3-b]pyridin-5-yl)pyridin-3-yl)pivalamide]: in experiment [1], the EC50 is over 10000 nM and the inhibition at 10 µM was 21%. In experiment [2], the Emax is 70% and the EC50 worked out at 30 nM.
